Test results: US12157730B2, “Heteroaryl derivative, method for producing same, and pharmaceutical composition comprising same as effective component” (VORONOI INC., priority 2019, dated 2024)

Molecular target: T1, Ba/F3 cell EGFR Exon20 ins NPH (Homo sapiens, UniProt P00533, INS773NPH)
T1 construct: expressed in transfected cells; host or cells: Ba/F3
Assay: Ba/F3 cell proliferation suppression, EGFR Exon20 ins NPH
Format: cell-based
Conditions: GI50 class; Ba/F3 cell line with NPH inserted at Exon20 of EGFR; 72 hours
Method in brief: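 Seed 3000–5000 cells/well; after 24 h add compound (12 conc., 0.3 nM–50 um final); incubate 72 h; add CellTiter-Glo, 10 min room temperature; read luminescence; GI50 from % growth vs control, triplicate.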

Structure (SMILES) | Ba/F3 (NPH) Activity
C=CC(=O)Nc1cc(Nc2cc(N3OCC[C@@H]3c3cccc4ccccc34)ncn2)c(OC)cc1N1CCC(N2CCO[C@H](C)C2)CC1 [compound 536, N-(4-methoxy-2-(4-((R)-2-methylmorpholino)piperidine-1-yl)-5-((6-((R)-3-(naphthalene-1-yl)isoxazolidine-2-yl)pyrimidine-4-yl)amino)phenyl) acrylamide] | A (GI50 < 50 nM)
C=CC(=O)Nc1cc(Nc2cc(N3OCC[C@@H]3c3cccc(Cl)c3C)ncn2)c(OC)cc1N1CCC(N2CCN(C3CC3)[C@H](C)C2)CC1 [Example 152, N-(5-((6-((R)-3-(3-chloro-2-methylphenyl)isoxazolidine-2-yl)pyrimidine-4-yl)amino)-2-(4-((R)-4-cyclopropyl-3-methylpiperazine-1-yl)piperidine-1-yl)-4-methoxyphenyl) acrylamide] | A (GI50 < 50 nM)
C=CC(=O)Nc1cc(Nc2cc(N3OCC[C@@H]3c3ccc(Cl)c(Cl)c3F)ncn2)c(OC)cc1N1CCC(N2CCN(C3CCC3)CC2)CC1 [Example 74, N-(2-(4-(4-cyclobutylpiperazine-1-yl)piperidine-1-yl)-5-((6-((R)-3-(3,4-dichloro-2-fluorophenyl)isoxazolidine-2-yl)pyrimidine-4-yl)amino)-4-methoxyphenyl) acrylamide] | B (50 nM ≤ GI50 < 500 nM)
C=CC(=O)Nc1cc(Nc2cc(N3OCC[C@@H]3c3c(F)ccc(F)c3Cl)ncn2)c(OC)cc1N1CCC(N2C[C@H]3C[C@@H]2CO3)CC1 [compound 692, N-(2-(4-((1R,4R)-2-oxa-5-azabicyclo[2.2.1]heptane-5-yl)piperidine-1-yl)-5-((6-((R)-3-(2-chloro-3,6-difluorophenyl)isoxazolidine-2-yl)pyrimidine-4-yl)amino)-4-methoxyphenyl) acrylamide] | A (GI50 < 50 nM)
C=CC(=O)Nc1cc(Nc2cc(N3OCC[C@@H]3c3ccc(Cl)c(Cl)c3)ncn2)c(OC)cc1N1C[C@H]2C[C@@H]1CN2CC [compound 676, N-(5-((6-((R)-3-(3,4-dichlorophenyl)isoxazolidine-2-yl)pyrimidine-4-yl)amino)-2-((1R,4R)-5-ethyl-2,5-diazabicyclo[2.2.1]heptane-2-yl)-4-methoxyphenyl) acrylamide] | A (GI50 < 50 nM)
C=CC(=O)Nc1cc(Nc2cc(N3OCC[C@@H]3c3ccc(F)cc3)ncn2)c(OC)cc1N1CCC(N2CCN(C3CCC3)CC2)CC1 [Example 76, N-(2-(4-(4-cyclobutylpiperazine-1-yl)piperidine-1-yl)-5-((6-((R)-3-(4-fluorophenyl)isoxazolidine-2-yl)pyrimidine-4-yl)amino)-4-methoxyphenyl) acrylamide] | A (GI50 < 50 nM)
C=CC(=O)Nc1cc(Nc2cc(N3OCC[C@@H]3c3ccc(F)c(F)c3)ncn2)c(OC)cc1N1CCC(N2CCN(C3CC3)CC2)CC1 [Example 161, N-(2-(4-(4-cyclopropylpiperazine-1-yl)piperidine-1-yl)-5-((6-((R)-3-(3,4-difluorophenyl)isoxazolidine-2-yl)pyrimidine-4-yl)amino)-4-methoxyphenyl) acrylamide] | A (GI50 < 50 nM)
C=CC(=O)Nc1cc(Nc2cc(N3OCC[C@@H]3c3ccc(F)cc3F)ncn2)c(OC)cc1N1CCN(C(C)C)CC1 [compound 346, N-(5-((6-((R)-3-(2,4-difluorophenyl)isoxazolidine-2-yl)pyrimidine-4-yl)amino)-2-(4-isopropylpiperazine-1-yl)-4-methoxyphenyl) acrylamide] | A (GI50 < 50 nM)
C=CC(=O)Nc1cc(Nc2cc(N3OCC[C@H]3c3c(F)cccc3F)ncn2)c(OC)cc1N1CCC(N(C)C)CC1 [compound 308, N-(5-((6-((S)-3-(2,6-difluorophenyl)isoxazolidine-2-yl)pyrimidine-4-yl)amino)-2-(4-(dimethylamino)piperidine-1-yl)-4-methoxyphenyl) acrylamide] | C (500 nM ≤ GI50 < 5000 nM)
C=CC(=O)Nc1cc(Nc2cc(N3OCC[C@@H]3c3ccc(F)cc3F)ncn2)c(OC)cc1N1CCC(N2C[C@@H]3C[C@H]2CO3)CC1 [compound 381, N-(2-(4-((1S,4S)-2-oxa-5-azabicyclo[2.2.1]heptane-5-yl)piperidine-1-yl)-5-((6-((R)-3-(2,4-difluorophenyl)isoxazolidine-2-yl)pyrimidine-4-yl)amino)-4-methoxyphenyl) acrylamide] | A (GI50 < 50 nM)
C=CC(=O)Nc1cc(Nc2cc(N3OCC[C@H]3c3c(F)cccc3F)ncn2)c(OC)cc1N1CCC(N2CCN(CC)CC2)CC1 [compound 312, N-(5-((6-((S)-3-(2,6-difluorophenyl)isoxazolidine-2-yl)pyrimidine-4-yl)amino)-2-(4-(4-ethylpiperazine-1-yl)piperidine-1-yl)-4-methoxyphenyl) acrylamide] | C (500 nM ≤ GI50 < 5000 nM)
C=CC(=O)Nc1cc(Nc2cc(N3OCC[C@@H]3c3ccc(F)c(Cl)c3F)ncn2)c(OC)cc1N1CCC(N2CCN(C3COC3)CC2)CC1 [Example 202, N-(5-((6-((R)-3-(3-chloro-2,4-difluorophenyl)isoxazolidine-2-yl)pyrimidine-4-yl)amino)-4-methoxy-2-(4-(4-(oxetane-3-yl)piperazine-1-yl)piperidine-1-yl)phenyl)acrylamide] | A (GI50 < 50 nM)
C=CC(=O)Nc1cc(Nc2cc(N3OCC[C@@H]3c3cc(F)cc(Cl)c3)ncn2)c(OC)cc1N1CCC(N2CCN(C3CC3)C[C@H]2C)CC1 [Example 159, N-(5-((6-((R)-3-(3-chloro-5-fluorophenyl)isoxazolidine-2-yl)pyrimidine-4-yl)amino)-2-(4-((R)-4-cyclopropyl-2-methylpiperazine-1-yl)piperidine-1-yl)-4-methoxyphenyl) acrylamide] | A (GI50 < 50 nM)
C=CC(=O)Nc1cc(Nc2cc(N3OCC[C@@H]3c3ccc(Cl)cc3)ncn2)c(OC)cc1N1CCC(N2CCN(CC)CC2)CC1 [Example 254, N-(5-((6-((R)-3-(4-chlorophenyl)isoxazolidine-2-yl)pyrimidine-4-yl)amino)-2-(4-(4-ethylpiperazine-1-yl)piperidine-1-yl)-4-methoxyphenyl) acrylamide] | A (GI50 < 50 nM)
C=CC(=O)Nc1cc(Nc2cc(N3OCC[C@@H]3c3cccc(F)c3Cl)ncn2)c(OC)cc1N1CCC(N2C[C@H]3CCN(C)[C@H]3C2)CC1 [compound 447, N-(5-((6-((R)-3-(2-chloro-3-fluorophenyl)isoxazolidine-2-yl)pyrimidine-4-yl)amino)-4-methoxy-2-(4-((3aR,6aR)-1-methylhexahydropyrrolo [3,4-b]pyrrole-5(1H)-yl)piperidine-1-yl)phenyl)acrylamide] | A (GI50 < 50 nM)

More lines, now with the values ahead:

Ba/F3 (NPH) Activity | Structure (SMILES)
B (50 nM ≤ GI50 < 500 nM) | C=CC(=O)Nc1cc(Nc2cc(N3OCC[C@@H]3c3cc(F)cc(F)c3)ncn2)c(OC)cc1N1CCC(N2CCNCC2)CC1 [compound 754, N-(5-((6-((R)-3-(3,5-difluorophenyl)isoxazolidine-2-yl)pyrimidine-4-yl)amino)-4-methoxy-2-(4-(piperazine-1-yl)piperidine-1-yl)phenyl) acrylamide]
A (GI50 < 50 nM) | C=CC(=O)Nc1cc(Nc2cc(N3OCC[C@@H]3c3cccc(F)c3)ncn2)c(OC)cc1N(C)CCOC [compound 838, N-(5-((6-((R)-3-(3-fluorophenyl)isoxazolidine-2-yl)pyrimidine-4-yl)amino)-4-methoxy-2-((2-methoxyethyl)(methyl)amino)phenyl) acrylamide]
A (GI50 < 50 nM) | C=CC(=O)Nc1cc(Nc2cc(N3OCC[C@@H]3c3ccc(Cl)c(F)c3)ncn2)c(OC)cc1N1C[C@@H]2C[C@H]1CO2 [compound 862, N-(2-((1S,4S)-2-oxa-5-azabicyclo [2.2.1]heptane-5-yl)-5-((6-((R)-3-(4-chloro-3-fluorophenyl)isoxazolidine-2-yl)pyrimidine-4-yl)amino)-4-methoxyphenyl) acrylamide]
A (GI50 < 50 nM) | C=CC(=O)Nc1cc(Nc2cc(N3OCC[C@@H]3c3cccc(C(F)(F)F)c3)ncn2)c(OC)cc1N1CCC(N2CCN(C3CC3)[C@H](C)C2)CC1 [compound 942, N-(2-(4-((R)-4-cyclopropyl-3-methylpiperazine-1-yl)piperidine-1-yl)-4-methoxy-5-((6-((R)-3-(3-(trifluoromethyl)phenyl)isoxazolidine-2-yl)pyrimidine-4-yl)amino)phenyl) acrylamide]
A (GI50 < 50 nM) | C=CC(=O)Nc1cc(Nc2cc(N3OCC[C@@H]3c3ccc(Cl)cc3)ncn2)c(OC)cc1N1CCC(N2C[C@@H]3C[C@H]2CO3)CC1 [compound 866, N-(2-(4-((1S,4S)-2-oxa-5-azabicyclo [2.2.1]heptane-5-yl)piperidine-1-yl)-5-((6-((R)-3-(4-chlorophenyl)isoxazolidine-2-yl)pyrimidine-4-yl)amino)-4-methoxyphenyl) acrylamide]
B (50 nM ≤ GI50 < 500 nM) | C=CC(=O)Nc1cc(Nc2cc(N3OCC[C@@H]3c3cccc(OC)c3)ncn2)c(OC)cc1N1CCC(N2CCN(C(C)C)CC2)CC1 [compound 780, N-(2-(4-(4-isopropylpiperazine-1-yl)piperidine-1-yl)-4-methoxy-5-((6-((R)-3-(3-methoxyphenyl)isoxazolidine-2-yl)pyrimidine-4-yl)amino)phenyl)acrylamide]
A (GI50 < 50 nM) | C=CC(=O)Nc1cc(Nc2cc(N3OCC[C@@H]3c3ccccc3)ncn2)c(OC)cc1N1CCC(N2C[C@H]3C[C@@H]2CN3CC)CC1 [compound 738, N-(2-(4-((1R,4R)-5-ethyl-2,5-diazabicyclo [2.2.1]heptane-2-yl)piperidine-1-yl)-4-methoxy-5-((6-((R)-3-phenylisoxazolidine-2-yl)pyrimidine-4-yl)amino)phenyl) acrylamide]
